Results reported in patent US20260242419A1, “A CYCLIC PEPTIDE FOR TRAPPING INTERLEUKIN-1 BETA” (Merck Sharp & Dohme LLC, priority 2023, published 2026).
Starred links: 1 amine or outer side, 2 acyl side, 3 side chain; linkers in the order of their positions; H or OH if unused. Non-standard residues stand in square brackets, D forms with d. Residues, ends and D or L forms follow the SMILES beside them. dPro(4R-(4-pyridylmethyl)) = O=C(O)[C@H]1C[C@@H](Cc2ccncc2)CN1; Trp(βS-Me,4-F) = C[C@@H](c1c[nH]c2cccc(F)c12)[C@H](N)C(=O)O; Bip(4'-COOH) = N[C@@H](Cc1ccc(-c2ccc(C(=O)O)cc2)cc1)C(=O)O; dPro(4R-Bzl(4-F)) = O=C(O)[C@H]1C[C@@H](Cc2ccc(F)cc2)CN1; dPro(3S-(4-F-Bn)) = O=C(O)[C@@H]1NCC[C@@H]1Cc1ccc(F)cc1; Phe(4-COOH) = N[C@@H](Cc1ccc(C(=O)O)cc1)C(=O)O; X34 = C[N+](C)(C)CC[C@H](N[*:1])C(=O)[*:2]; Pro(cis-4-F) = O=C(O)[C@@H]1C[C@H](F)CN1; X45 = Cc1cc(C[C@H](N[*:1])C(=O)[*:2])no1; Ala(4-THP) = N[C@@H](CC1CCOCC1)C(=O)O; X38 = O=C([C@H](Cc1ncco1)N[*:1])[*:2]; X6 = O=C([C@H](Cc1ccncn1)N[*:1])[*:2]; AEF = NCCOc1ccc(C[C@H](N)C(=O)O)cc1; d(αMeD) = C[C@@](N)(CC(=O)O)C(=O)O; 4Pal = N[C@@H](Cc1ccncc1)C(=O)O; Dab = NCC[C@H](N)C(=O)O; Aib = CC(C)(N)C(=O)O

Molecular target: T1, IL-1β (Homo sapiens, UniProt P01584)
T1 construct: purchased BioLegend 579404
Assay: IL-6 assay in MRC5 cells: inhibition of IL-1β induced IL-6 secretion (AlphaLISA)
Type: cell-based
Details: inhibition of IL-1β induced IL-6 secretion in MRC5 cells; read-out: MRC5 IC50
Procedure, shortened: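 Compound was pre-incubated 1 h at ambient temperature with recombinant human IL-1β at 2λ EC80 before adding human lung fibroblast MRC5 cells (3000/well) in EMEM with 0.025% BSA. After overnight culture at 37 °C, 5% CO2, secreted IL-6 in conditioned medium was measured by AlphaLISA; IC50 from 4-parameter logistic fits.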

T1 sequence (P01584 117-269): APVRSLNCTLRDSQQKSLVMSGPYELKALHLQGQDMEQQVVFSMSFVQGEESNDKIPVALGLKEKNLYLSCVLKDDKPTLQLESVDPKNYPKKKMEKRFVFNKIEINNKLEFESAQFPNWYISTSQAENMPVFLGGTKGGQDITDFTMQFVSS

Row | IC50 [nM] | SMILES
1 | 0.017 | C[C@@H](c1c[nH]c2cccc(F)c12)[C@@H]1NC(=O)[C@@H]2C[C@H](F)CN2C(=O)CNC(=O)[C@H](Cc2ccc(C(=O)O)cc2)NC(=O)[C@H](Cc2ccncc2)NC(=O)[C@H](Cc2ccc(-c3ccc(C(=O)O)cc3)cc2)NC(=O)[C@H]2[C@@H](Cc3ccc(F)cc3)CCN2C(=O)CNC(=O)[C@H](CCN)NC(=O)[C@H](CCC(N)=O)NC(=O)[C@H](Cc2ccncn2)NC(=O)C(C)(C)NC(=O)[C@H](Cc2c[nH]c3ccccc23)NC(=O)[C@H](CCC(=O)O)NC(=O)C(C)(C)NC1=O [Example 312] (cyclo([Bip(4'-COOH)][4Pal][Phe(4-COOH)]G[Pro(cis-4-F)][Trp(βS-Me,4-F)][Aib]EW[Aib][X6]Q[Dab]G[dPro(3S-(4-F-Bn))]))
2 | 0.015 | C[C@@H](c1c[nH]c2cccc(F)c12)[C@@H]1NC(=O)[C@@H]2C[C@H](F)CN2C(=O)CNC(=O)[C@H](Cc2ccc(C(=O)O)cc2)NC(=O)[C@H](Cc2ccncc2)NC(=O)[C@H](Cc2ccc(-c3ccc(C(=O)O)cc3)cc2)NC(=O)[C@H]2C[C@@H](Cc3ccc(F)cc3)CN2C(=O)CNC(=O)[C@H](CCN)NC(=O)[C@H](CCC(N)=O)NC(=O)[C@H](CC2CCOCC2)NC(=O)[C@@](C)(CC(=O)O)NC(=O)[C@H](Cc2c[nH]c3ccccc23)NC(=O)[C@H](CO)NC(=O)C(C)(C)NC1=O [Example 313] (cyclo([Bip(4'-COOH)][4Pal][Phe(4-COOH)]G[Pro(cis-4-F)][Trp(βS-Me,4-F)][Aib]SW[d(αMeD)][Ala(4-THP)]Q[Dab]G[dPro(4R-Bzl(4-F))]))
3 | 0.02 | C[C@@H](c1c[nH]c2cccc(F)c12)[C@@H]1NC(=O)[C@@H]2C[C@H](F)CN2C(=O)CNC(=O)[C@H](Cc2ccc(C(=O)O)cc2)NC(=O)[C@H](Cc2ccncc2)NC(=O)[C@H](Cc2ccc(-c3ccc(C(=O)O)cc3)cc2)NC(=O)[C@H]2C[C@@H](Cc3ccc(F)cc3)CN2C(=O)CNC(=O)[C@H](CCN)NC(=O)[C@H](CCC(N)=O)NC(=O)[C@H](CC[N+](C)(C)C)NC(=O)C(C)(C)NC(=O)[C@H](Cc2c[nH]c3ccccc23)NC(=O)[C@H](CO)NC(=O)C(C)(C)NC1=O [Example 314] (cyclo([Bip(4'-COOH)][4Pal][Phe(4-COOH)]G[Pro(cis-4-F)][Trp(βS-Me,4-F)][Aib]SW[Aib][X34]Q[Dab]G[dPro(4R-Bzl(4-F))]))
4 | 0.018 | CC(=O)NCCOc1ccc(C[C@@H]2NC(=O)[C@H]3C[C@@H](Cc4ccncc4)CN3C(=O)CNC(=O)[C@H](CCN)NC(=O)[C@H](CCC(N)=O)NC(=O)[C@H](Cc3cc(C)on3)NC(=O)C(C)(C)NC(=O)[C@H](Cc3c[nH]c4ccccc34)NC(=O)[C@H](CCC(=O)O)NC(=O)C(C)(C)NC(=O)[C@H]([C@@H](C)c3c[nH]c4cccc(F)c34)NC(=O)[C@@H]3C[C@H](F)CN3C(=O)CNC(=O)[C@H](Cc3ccc(C(=O)O)cc3)NC(=O)[C@H](Cc3ccncc3)NC2=O)cc1 [Example 315] (cyclo([AEF](Ac)[4Pal][Phe(4-COOH)]G[Pro(cis-4-F)][Trp(βS-Me,4-F)][Aib]EW[Aib][X45]Q[Dab]G[dPro(4R-(4-pyridylmethyl))]))
5 | 0.02 | CC(=O)NCCOc1ccc(C[C@@H]2NC(=O)[C@H]3C[C@@H](Cc4ccncc4)CN3C(=O)CNC(=O)[C@H](CCN)NC(=O)[C@H](CCC(N)=O)NC(=O)[C@H](Cc3ncco3)NC(=O)C(C)(C)NC(=O)[C@H](Cc3c[nH]c4ccccc34)NC(=O)[C@H](CCC(=O)O)NC(=O)C(C)(C)NC(=O)[C@H]([C@@H](C)c3c[nH]c4cccc(F)c34)NC(=O)[C@@H]3C[C@H](F)CN3C(=O)CNC(=O)[C@H](Cc3ccc(C(=O)O)cc3)NC(=O)[C@H](Cc3ccncc3)NC2=O)cc1 [Example 316] (cyclo([AEF](Ac)[4Pal][Phe(4-COOH)]G[Pro(cis-4-F)][Trp(βS-Me,4-F)][Aib]EW[Aib][X38]Q[Dab]G[dPro(4R-(4-pyridylmethyl))]))
